Where “and” joins values, the source holds several entries; their conditions need not be identical. Equal values may be shown once.
Test: Solution stability test (HPLC) of UDCA, branched chained amino acids and maltodextrin solution, Example IV
Assay type: physicochemical
Procedure: The stability tests were conducted on three different aqueous solution systems: […]. A bile acid and a high molecular weight aqueous soluble starch conversion product were combined in aqueous solution according to Example I, with results as shown in Tables 1A and 1B. • 2. Mixed bile acids and high molecular weight aqueous soluble starch conversion products were combined in aqueous solution according to Example II, with results as shown in Table 2. • 3. Bile acids, high molecular weight aqueous soluble starch conversion products and branched chained amino acids (e.g. leucine, isoleucine, valine, or other amino acid with a branched side chain) were combined in aqueous solution according to Example IV, with results as shown in Tables 3A through 3F. The stability tests were performed with HPLC and microscope light at various pH conditions under the normal and accelerated conditions. Accelerated conditions for testing pharmaceutical compositions have been described (Remington, The Science and Practice of Pharmacy, 19th ed., p. 640). […] Thus, the formulations of the examples are suitable for preparing a commercial liquid dosage form. […] Some formulations remain stable for over 2 years. Moreover, the solution stability tests were conducted on the aqueous solution dosage forms comprising the mixture of aqueous soluble UDCA, branched chained amino acid (leucine, isoleucine, valine) and maltodextrin according to example IV as a typical example of the solution dosage forms in which bile acid as a therapeutically active agent, as an adjuvant or carrier, pharmaceutically active agent, or enhancer of solubility, and high molecular weight aqueous soluble starch conversion products or soluble non-starch polysaccharides are dissolved. According to the test results, there is no discoloration, no clarity changes, and no precipitation. […] In the tables, the concentration of the indicated bile acid salt for each of the three numbered trials and the average thereof is reported on each line. The percentage indicates the relative concentration of the bile acid salt after incubation for a certain amount of time in comparison with the initial concentration. 85 mL of the aqueous solution in which soluble UDCA is dissolved was prepared, and then maltodextrin was added into the clear solution. Into the resulting clear solution, branched amino acids were added with adjusting the pH (4–7) with agitation and then sweetener, preservatives, and flavoring agent were added. Purified water was added to adjust the total volume to be 100 mL. Tables 3A to 3F show stability test results over time of formulation prepared with amino acids according to Example IV. All stability tests were conducted at 50° C. Stability test results at pH 1 (Table 3A), pH 3 (Table 3B), pH 5 (Table 3C), pH 7 (Table 3D), pH 9 (Table 3E), and pH 10 (Table 3F) are shown.

With `CC[C@H](C)[C@H](N)C(=O)O` [Ile, isoleucine] the “Percentage of day 0 concentration” value (Table 3A: pH1, 50° C., day 0) was 100.0%, the “concentration by HPLC, Average” value (Table 3A: pH1, 50° C., day 0) was 0.248 and the “concentration by HPLC, trials #1-#3” value (Table 3A: pH1, 50° C., day 0) was 0.261 and 0.236 and 0.249. The “Percentage of day 0 concentration” value (Table 3A: pH1, 50° C., day 1) was 105.0%, the “concentration by HPLC, Average” value (Table 3A: pH1, 50° C., day 1) was 0.261 and the “concentration by HPLC, trials #1-#3” value (Table 3A: pH1, 50° C., day 1) was 0.256 and 0.275 and 0.251. For the same compound, the “Percentage of day 0 concentration” value (Table 3A: pH1, 50° C., day 2) was 104.9%, the “concentration by HPLC, Average” value (Table 3A: pH1, 50° C., day 2) was 0.260 and the “concentration by HPLC, trials #1-#3” value (Table 3A: pH1, 50° C., day 2) was 0.268 and 0.263 and 0.251. The “Percentage of day 0 concentration” value (Table 3A: pH1, 50° C., day 6) was 114.6%, the “concentration by HPLC, Average” value (Table 3A: pH1, 50° C., day 6) was 0.285 and the “concentration by HPLC, trials #1-#3” value (Table 3A: pH1, 50° C., day 6) was 0.295 and 0.268 and 0.291. The “Percentage of day 0 concentration” value (Table 3A: pH1, 50° C., day 7) was 103.4%, the “concentration by HPLC, Average” value (Table 3A: pH1, 50° C., day 7) was 0.257 and the “concentration by HPLC, trials #1-#3” value (Table 3A: pH1, 50° C., day 7) was 0.249 and 0.254 and 0.267. The “Percentage of day 0 concentration” value (Table 3A: pH1, 50° C., day 8) was 98.8%, the “concentration by HPLC, Average” value (Table 3A: pH1, 50° C., day 8) was 0.245 and the “concentration by HPLC, trials #1-#3” value (Table 3A: pH1, 50° C., day 8) was 0.253 and 0.243 and 0.240. For the same compound, the “Percentage of day 0 concentration” value (Table 3A: pH1, 50° C., day 9) was 106.6%, the “concentration by HPLC, Average” value (Table 3A: pH1, 50° C., day 9) was 0.265 and the “concentration by HPLC, trials #1-#3” value (Table 3A: pH1, 50° C., day 9) was 0.263 and 0.268. For the same compound, the “Percentage of day 0 concentration” value (Table 3B: pH 3, 50° C., day 0) was 100.0%, the “concentration by HPLC, Average” value (Table 3B: pH 3, 50° C., day 0) was 0.256 and the “concentration by HPLC, trials #1-#3” value (Table 3B: pH 3, 50° C., day 0) was 0.261 and 0.254 and 0.253. For the same compound, the “Percentage of day 0 concentration” value (Table 3B: pH 3, 50° C., day 1) was 103.3%, the “concentration by HPLC, Average” value (Table 3B: pH 3, 50° C., day 1) was 0.265 and the “concentration by HPLC, trials #1-#3” value (Table 3B: pH 3, 50° C., day 1) was 0.266 and 0.268 and 0.261. For the same compound, the “Percentage of day 0 concentration” value (Table 3B: pH 3, 50° C., day 2) was 99.3%, the “concentration by HPLC, Average” value (Table 3B: pH 3, 50° C., day 2) was 0.254 and the “concentration by HPLC, trials #1-#3” value (Table 3B: pH 3, 50° C., day 2) was 0.273 and 0.243 and 0.247. For the same compound, the “Percentage of day 0 concentration” value (Table 3B: pH 3, 50° C., day 6) was 117.4%, the “concentration by HPLC, Average” value (Table 3B: pH 3, 50° C., day 6) was 0.301 and the “concentration by HPLC, trials #1-#3” value (Table 3B: pH 3, 50° C., day 6) was 0.296 and 0.306 and 0.300. For the same compound, the “Percentage of day 0 concentration” value (Table 3B: pH 3, 50° C., day 7) was 100.0%, the “concentration by HPLC, Average” value (Table 3B: pH 3, 50° C., day 7) was 0.256 and the “concentration by HPLC, trials #1-#3” value (Table 3B: pH 3, 50° C., day 7) was 0.247 and 0.265 and 0.257. The “Percentage of day 0 concentration” value (Table 3B: pH 3, 50° C., day 8) was 96.7%, the “concentration by HPLC, Average” value (Table 3B: pH 3, 50° C., day 8) was 0.248 and the “concentration by HPLC, trials #1-#3” value (Table 3B: pH 3, 50° C., day 8) was 0.250 and 0.247. For the same compound, the “Percentage of day 0 concentration” value (Table 3B: pH 3, 50° C., day 13) was 100.9%, the “concentration by HPLC, Average” value (Table 3B: pH 3, 50° C., day 13) was 0.258 and the “concentration by HPLC, trials #1-#3” value (Table 3B: pH 3, 50° C., day 13) was 0.285 and 0.240 and 0.250. The “Percentage of day 0 concentration” value (Table 3C: pH 5, 50° C., day 0) was 100.0%, the “concentration by HPLC, Average” value (Table 3C: pH 5, 50° C., day 0) was 0.279 and the “concentration by HPLC, trials #1-#3” value (Table 3C: pH 5, 50° C., day 0) was 0.285 and 0.258 and 0.295. The “Percentage of day 0 concentration” value (Table 3C: pH 5, 50° C., day 3) was 99.0%, the “concentration by HPLC, Average” value (Table 3C: pH 5, 50° C., day 3) was 0.277 and the “concentration by HPLC, trials #1-#3” value (Table 3C: pH 5, 50° C., day 3) was 0.280 and 0.275. The “Percentage of day 0 concentration” value (Table 3C: pH 5, 50° C., day 6) was 98.7%, the “concentration by HPLC, Average” value (Table 3C: pH 5, 50° C., day 6) was 0.276 and the “concentration by HPLC, trials #1-#3” value (Table 3C: pH 5, 50° C., day 6) was 0.285 and 0.273 and 0.270. The “Percentage of day 0 concentration” value (Table 3C: pH 5, 50° C., day 10) was 98.4%, the “concentration by HPLC, Average” value (Table 3C: pH 5, 50° C., day 10) was 0.275 and the “concentration by HPLC, trials #1-#3” value (Table 3C: pH 5, 50° C., day 10) was 0.274 and 0.276. For the same compound, the “Percentage of day 0 concentration” value (Table 3C: pH 5, 50° C., day 13) was 100.0%, the “concentration by HPLC, Average” value (Table 3C: pH 5, 50° C., day 13) was 0.279 and the “concentration by HPLC, trials #1-#3” value (Table 3C: pH 5, 50° C., day 13) was 0.273 and 0.287 and 0.278.
